{"source": "patent US6900202B2", "about": "“Di-substituted imineheterocyclic compounds” (priority 2000, dated 2005)", "key": {"[1]": {"biological_target": "T1, α4β2 subtype of nicotinic acetylcholine receptors (Rattus norvegicus, UniProt P09483+P12390)", "T1 construct": "examined using rat brain membrane obtained from whole homogenized brain; from tissue; host or cells: whole brain membranes of Fischer-344 male rats", "T1 sequence (P09483 31-630)": "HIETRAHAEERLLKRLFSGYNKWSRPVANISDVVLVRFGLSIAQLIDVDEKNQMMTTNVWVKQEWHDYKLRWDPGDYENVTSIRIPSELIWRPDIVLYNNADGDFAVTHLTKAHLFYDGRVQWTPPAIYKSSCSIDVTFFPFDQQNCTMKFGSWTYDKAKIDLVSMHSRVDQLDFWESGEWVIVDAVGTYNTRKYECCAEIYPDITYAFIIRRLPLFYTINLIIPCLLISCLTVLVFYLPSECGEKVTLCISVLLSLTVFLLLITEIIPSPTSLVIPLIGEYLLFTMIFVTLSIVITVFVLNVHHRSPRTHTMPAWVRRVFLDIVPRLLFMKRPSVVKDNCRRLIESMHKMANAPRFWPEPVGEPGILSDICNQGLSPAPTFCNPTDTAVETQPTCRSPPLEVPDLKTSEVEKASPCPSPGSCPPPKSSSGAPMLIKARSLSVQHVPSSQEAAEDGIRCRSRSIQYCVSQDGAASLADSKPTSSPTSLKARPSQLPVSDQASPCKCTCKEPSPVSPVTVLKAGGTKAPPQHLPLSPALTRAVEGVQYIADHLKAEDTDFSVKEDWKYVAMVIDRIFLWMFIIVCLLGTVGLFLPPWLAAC", "T1 sequence (P12390 25-500)": "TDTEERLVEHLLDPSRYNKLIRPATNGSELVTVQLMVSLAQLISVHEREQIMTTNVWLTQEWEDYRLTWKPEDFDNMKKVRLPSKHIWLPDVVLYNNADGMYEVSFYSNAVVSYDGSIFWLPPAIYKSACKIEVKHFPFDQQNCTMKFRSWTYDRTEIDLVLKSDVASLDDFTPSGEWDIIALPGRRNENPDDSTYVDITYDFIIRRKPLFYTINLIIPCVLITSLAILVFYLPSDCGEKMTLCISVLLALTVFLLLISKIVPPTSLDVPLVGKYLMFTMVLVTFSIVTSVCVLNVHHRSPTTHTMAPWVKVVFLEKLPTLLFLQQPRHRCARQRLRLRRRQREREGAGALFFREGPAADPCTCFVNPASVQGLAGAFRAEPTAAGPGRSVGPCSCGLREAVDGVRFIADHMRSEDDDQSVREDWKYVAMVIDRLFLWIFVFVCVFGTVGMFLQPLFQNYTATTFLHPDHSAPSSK", "assay": "Binding assay at α4β2 subtype of nicotinic acetylcholine receptors ([3H]-cytisine, rat brain membrane)", "description": "(§1) The methods for evaluating the binding capabilities of the compounds against nicotinic acetylcholine receptors are different by subtypes of receptors. The binding capabilities of the compounds at α4β2 nicotinic acetylcholine receptors are examined using rat brain membrane obtained from whole homogenized brain, and determining the inhibiting rate of the compounds against [^3H]-cytisine binding to said brain membrane. Furthermore, the binding capabilities of the compounds at α1β1γδ nicotinic acetylcholine receptors are examined using homogenized rat muscle, and determining the inhibiting rate of the compounds against [^3H]-α-bungarotoxin binding to said muscle membrane.\nBinding Assays at α4β2 Subtype of Nicotinic Acetylcholine Receptors\nThe affinity of the compounds of the present invention to α4β2 subunit of nicotinic acetylcholine receptors was performed by the following method, which was modified method described by Pabreza L. A., Dhawan S. & Kellar K. J., Mol. Pharm., 39, 9-12 (1990), and by Anderson D. J. & Arneric S. P., Eur. J. Pharm., 253, 261-267 (1994).\n(1) Preparation of Rat Brain Membrane Containing α4β2 subtype of Nicotinic Acetylcholine Receptors\nFischer-344 strain male rats (body weight: 200-240 g; 9 weeks old) obtained from Charles River Japan were used. Rats were housed in the breeding cage controlled of the room temperature at 23±1° C., and the humidity of 55±5% for 1 to 4 weeks. Rats (3 to 4 rats per a cage) were housed with lights on for 12 hours daily (from 7:00 to 19:00), and allowed free access to food and water.\nPreparation of rat brain membrane containing α4β2 subtype of nicotinic acetylcholine receptors was performed as follow. That is, rat brains were isolated just after sacrificed by decapitation, washed with ice-cooled saline solution and then frozen at −80° C. with liquid nitrogen and stored till using. After thawing the frozen brain, the brain was homogenized in 10 volumes of buffer solution (50 mM of Tris-HCl, 120 mM of NaCl, 5 mM of KCl, 1 mM of MgCl2, 2mM of CaCl2; pH 7.4; 4° C.) using homogenizer (HG30, Hitachi Kohki Ltd.) for 30 seconds, and the homogenate were centrifuged under 1,000×G for 10 minutes at 4° C. The resulting supernatant was separated and the pellet was homogenized again with half volume of aforementioned prior buffer solution and centrifuged under the same conditions. Combined supernatant was further centrifuged under 40,000×G for 20 minutes at 4° C. The pellet was suspended in buffer solution and used for binding assays at receptors.\n(2) Experiments of α4β2 Subtype of Nicotinic Acetylcholine Receptors Binding\nSuspensions of membrane pellets containing 400-600 μg of protein were added to test tubes containing test compounds and [^3H]-cytisine (2 nM) in a final volume of 200 μl and incubated for 75 minutes in ice-cooled bath. The samples were isolated by vacuum filtration onto Whatman GF/B filters, which were prerinsed with 0.5% polyethylenimine just prior to sample filtration, using Brandel multi manifold cell harvester. The filters were rapidly washed with buffer solution (3×1 ml). The filters were counted in 3 ml of clearsol I (Nacalai Tesque Inc.).\nThe analyses of the experimental results were conducted by using the Accufit Competition Program (Beckman Ltd.)."}, "[2]": {"biological_target": "T2, α1β1γδ subtype of nicotinic acetylcholine receptors (Rattus norvegicus, UniProt P18916+P25108+P25109+P25110)", "T2 construct": "The centrifugation at 100,000×G for 60 minutes at 4° C. yielded the rat muscle extract as supernatant", "T2 sequence (P25108 21-457)": "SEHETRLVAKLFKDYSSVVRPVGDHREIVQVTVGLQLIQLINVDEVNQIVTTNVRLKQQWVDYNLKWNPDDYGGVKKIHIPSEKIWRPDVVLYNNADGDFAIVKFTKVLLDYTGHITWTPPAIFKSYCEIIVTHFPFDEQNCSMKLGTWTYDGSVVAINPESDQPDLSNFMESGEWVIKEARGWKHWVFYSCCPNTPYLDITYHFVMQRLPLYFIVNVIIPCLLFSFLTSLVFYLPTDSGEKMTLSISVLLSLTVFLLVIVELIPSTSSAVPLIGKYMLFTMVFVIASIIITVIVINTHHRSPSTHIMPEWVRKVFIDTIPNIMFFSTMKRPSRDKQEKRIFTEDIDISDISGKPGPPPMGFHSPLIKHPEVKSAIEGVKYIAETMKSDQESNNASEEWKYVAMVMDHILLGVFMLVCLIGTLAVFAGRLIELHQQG", "T2 sequence (P25109 24-501)": "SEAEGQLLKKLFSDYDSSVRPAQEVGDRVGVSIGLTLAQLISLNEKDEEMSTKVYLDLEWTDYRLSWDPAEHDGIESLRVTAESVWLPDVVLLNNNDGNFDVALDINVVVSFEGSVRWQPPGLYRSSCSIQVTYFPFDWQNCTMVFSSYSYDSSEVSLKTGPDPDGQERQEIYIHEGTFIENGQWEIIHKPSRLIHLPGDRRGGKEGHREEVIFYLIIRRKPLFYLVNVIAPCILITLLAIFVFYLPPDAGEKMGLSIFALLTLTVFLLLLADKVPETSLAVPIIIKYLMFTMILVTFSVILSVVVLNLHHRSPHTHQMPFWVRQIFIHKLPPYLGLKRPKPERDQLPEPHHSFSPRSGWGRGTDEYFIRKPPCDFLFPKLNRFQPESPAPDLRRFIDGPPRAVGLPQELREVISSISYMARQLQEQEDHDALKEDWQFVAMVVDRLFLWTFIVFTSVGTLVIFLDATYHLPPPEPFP", "T2 sequence (P25110 22-517)": "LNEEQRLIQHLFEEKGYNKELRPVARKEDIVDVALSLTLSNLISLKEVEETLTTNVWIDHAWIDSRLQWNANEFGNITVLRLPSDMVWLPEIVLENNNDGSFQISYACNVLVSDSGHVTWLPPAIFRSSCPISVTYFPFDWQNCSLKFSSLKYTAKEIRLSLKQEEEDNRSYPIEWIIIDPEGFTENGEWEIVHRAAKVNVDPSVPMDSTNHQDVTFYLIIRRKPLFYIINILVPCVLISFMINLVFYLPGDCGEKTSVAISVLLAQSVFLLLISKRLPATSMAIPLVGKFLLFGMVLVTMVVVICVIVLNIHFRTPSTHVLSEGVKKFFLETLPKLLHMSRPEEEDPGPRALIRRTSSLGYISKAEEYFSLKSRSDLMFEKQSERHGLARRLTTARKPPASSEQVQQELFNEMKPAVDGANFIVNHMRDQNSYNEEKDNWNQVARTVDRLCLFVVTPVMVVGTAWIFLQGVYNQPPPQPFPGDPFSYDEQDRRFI", "assay": "biochemical", "assay_type": "binding", "description": "as §1\nBinding Assays at α1β1γδ Subtype of Nicotinic Acetylcholine Receptors\nThe affinity of the compounds of the present invention to α1β1γδ subtype of nicotinic acetylcholine receptors was measured by the following method, which was modified method described by Garcha H. S., Thomas P., Spivak C.\n(1) Preparation of Rat Skeletal Muscles Containing α1β1γδ Subtype of Nicotinic Acetylcholine Receptors\nThe substantially same animals described in the Biological Experiment 1 were used.\nThe isolation of α1β1γδ subtype of nicotinic acetylcholine receptors was performed as follow. That is, rat posterior skeletal muscles were isolated just after sacrificed by decapitation, washed with ice-cooled saline solution and then frozen at −80° C. with liquid nitrogen and stored till using. After thawing the frozen muscles, tissue was homogenized (40% w/v) with buffer solution [2.5 mM of sodium phosphate buffer (pH:7.2), 90 mM of NaCl, 2 mM of KCl, 1 mM of EDTA, 2 mM of benzamidine, 0.1 mM of benzethonium chloride, 0.1 mM of PMSF, 0.01% of sodium azide] in Waring blender [Waring blender 34BL97; WARING PRODUCTS DIVISION DYNAMICS CORPORATION OF AMERICA) for 60 seconds. The homogenate were centrifuged under 20,000×G for 60 minutes at 4° C. The supernatant was separated and the resulting pellet was added to the same buffer (1.5 ml/g wet weight), and homogenized under the same conditions. Triton X100 (2% w/v) was added and the mixture was stirred for 3 hours at 4° C. The centrifugation at 100,000×G for 60 minutes at 4° C. yielded the rat muscle extract as supernatant. This was stored at 4° C. for up to 4 weeks, and used for binding assays at receptors.\n(2) Experiments of α1β1γδ Subtype of Nicotinic Acetylcholine Receptors Binding\nReceptors binding experiments were performed as follow. That is, the extract of rat muscle containing 600-900 μg of protein was added to test tubes containing test compounds and incubated for 15 minutes at 37° C. Then, to this mixture was added 1 nM of [^3H]-α-bungarotoxin (α-Bgt) and further incubated for 2 hours. The samples were isolated by vacuum filtration onto Whatman GF/B filters, which were prerinsed with 0.5% polyethylenimine just prior to sample filtration, using Brandel multi manifold cell harvester. The filters were rapidly rinsed with washing solution (10 mM of KH2PO4, 150 mM of NaCl, pH 7.2, room temperature) (5×1 ml). The filters were counted in 3 ml of clearsol I (Nacalai Tesque Inc.). The determination of nonspecific binding was incubated in the presence of 1 μM α-Bgt. […] In the receptor binding experiments, said buffer solution was added for adjusting the final concentration of BSA to be 0.05%.\nThe analyses of the experimental results were conducted by as described in the Biological Experiment 1."}}, "note": "pKi: −log10 of the molar value.", "data": [{"smiles": "Clc1ccc(C/N=C2\\SCCN2Cc2ccc(Cl)nc2)cn1", "note": "[Compound 1, 3-(6-chloro-3-pyridyl)methyl-2-[(6-chloro-3-pyridyl)methyl]iminothiazolidine]", "values": [{"measurement": "pKi", "setting": "[1]", "value": 7.80}, {"measurement": "pKi", "setting": "[2]", "value": 3.38}]}, {"smiles": "Clc1ccc(C/N=C2\\OCCCN2Cc2ccc(Cl)nc2)cn1", "note": "[Compound 2, 3-(6-chloro-3-pyridyl)methyl-2-[(6-chloro-3-pyridyl)-methyl]imino-3,4,5,6-tetrahydro-2H-1,3-oxazine]", "values": [{"measurement": "pKi", "setting": "[1]", "value": 7.66}]}, {"smiles": "Clc1ccc(C/N=c2\\sccn2Cc2ccc(Cl)nc2)cn1", "note": "[Compound 8, 3-(6-chloro-3-pyridyl)methyl-2-[(6-chloro-3-pyridyl)methyl]imino-2,3-dihydrothiazole]", "values": [{"measurement": "pKi", "setting": "[1]", "value": 7.38}, {"measurement": "pKi", "setting": "[2]", "value": 3.08}]}, {"smiles": "Cn1ccn(Cc2ccc(Cl)nc2)c1=N", "note": "[Compound 13, 1-(6-chloro-3-pyridyl)methyl-2-imino-3-methyl-2,3-dihydroimidazole]", "values": [{"measurement": "pKi", "setting": "[1]", "value": 7.82}, {"measurement": "pKi", "setting": "[2]", "value": 3.49}]}]}
